The NIST ThermoML archive (doi:10.1021/je4004806)
± gives the expanded uncertainty stated by the source.

What was measured:
[1] = xn = mol fraction of the nth substance listed; details: 101 kPa, Liquid; for mass density: Vibrating tube method; for viscosity: Capillary tube (Ostwald / Ubbelohde) method
[2] = 101 kPa, Liquid; for viscosity: Capillary tube (Ostwald / Ubbelohde) method; for mass density: Vibrating tube method

CCO [ethanol] + CCCCCCCC
[1], x2 = 0
Details | mass density [kg/m3]
293.15 K | 790.91 ± 0.12
298.15 K | 786.6 ± 0.12
303.15 K | 782.28 ± 0.12
308.15 K | 777.94 ± 0.13
313.15 K | 773.56 ± 0.13
318.15 K | 769.15 ± 0.13
323.15 K | 764.69 ± 0.13

CCCO [propan-1-ol]
[2]
Details | mass density [kg/m3] | viscosity [mPa·s]
293.15 K | 803.84 ± 0.12 | 2.21 ± 0.014
298.15 K | 799.85 ± 0.12 | 1.962 ± 0.013
303.15 K | 795.81 ± 0.12 | 1.746 ± 0.012
308.15 K | 791.74 ± 0.12 | 1.556 ± 0.012
313.15 K | 787.64 ± 0.13 | 1.386 ± 0.011
318.15 K | 783.55 ± 0.13 | 1.242 ± 0.011
323.15 K | 779.32 ± 0.13 | 1.115 ± 0.01

CCCCCCCC [octane] + CCCCCO
[1], x1 = 1
Details | mass density [kg/m3] | viscosity [mPa·s]
293.15 K | 702.54 ± 0.15 | 0.545 ± 0.009
298.15 K | 698.49 ± 0.15 | 0.513 ± 0.009
303.15 K | 694.44 ± 0.16 | 0.485 ± 0.009
308.15 K | 690.37 ± 0.16 | 0.459 ± 0.009
313.15 K | 686.29 ± 0.16 | 0.433 ± 0.009
318.15 K | 682.19 ± 0.16 | 0.412 ± 0.008
323.15 K | 678.08 ± 0.16 | 0.392 ± 0.008

CCCCCCCC [octane] + CCO
mass density [kg/m3], [1]
Details | x1 = 0.1008 | x1 = 0.2015 | x1 = 0.2998 | x1 = 0.4008 | x1 = 0.4663 | x1 = 0.6008 | x1 = 0.6991 | x1 = 0.7931 | x1 = 0.9031 | x1 = 1
293.15 K | 766.88 ± 0.81 | 750.57 ± 0.58 | 738.83 ± 0.44 | 729.83 ± 0.36 | 724.97 ± 0.3 | 716.77 ± 0.27 | 712.03 ± 0.23 | 708.31 ± 0.21 | 704.73 ± 0.19 | 702.54 ± 0.15
298.15 K | 762.56 ± 0.81 | 746.27 ± 0.58 | 734.53 ± 0.44 | 725.55 ± 0.37 | 720.68 ± 0.29 | 712.52 ± 0.27 | 707.81 ± 0.23 | 704.12 ± 0.21 | 700.59 ± 0.19 | 698.49 ± 0.15
303.15 K | 758.23 ± 0.81 | 741.94 ± 0.58 | 730.2 ± 0.44 | 721.22 ± 0.37 | 716.37 ± 0.29 | 708.23 ± 0.27 | 703.55 ± 0.23 | 699.9 ± 0.21 | 696.43 ± 0.19 | 694.44 ± 0.16
308.15 K | 753.87 ± 0.81 | 737.57 ± 0.58 | 725.83 ± 0.44 | 716.86 ± 0.37 | 712.02 ± 0.29 | 703.91 ± 0.27 | 699.27 ± 0.23 | 695.65 ± 0.21 | 692.24 ± 0.19 | 690.37 ± 0.16
313.15 K | 749.47 ± 0.81 | 733.15 ± 0.58 | 721.42 ± 0.44 | 712.46 ± 0.37 | 707.63 ± 0.29 | 699.56 ± 0.27 | 694.94 ± 0.23 | 691.37 ± 0.21 | 688.03 ± 0.19 | 686.29 ± 0.16
318.15 K | 745.03 ± 0.81 | 728.69 ± 0.58 | 716.96 ± 0.44 | 708 ± 0.37 | 703.19 ± 0.29 | 695.15 ± 0.27 | 690.58 ± 0.23 | 687.05 ± 0.21 | 683.78 ± 0.19 | 682.19 ± 0.16
323.15 K | 740.54 ± 0.82 | 724.18 ± 0.58 | 712.45 ± 0.44 | 703.5 ± 0.36 | 698.69 ± 0.3 | 690.7 ± 0.27 | 686.17 ± 0.23 | 682.7 ± 0.21 | 679.51 ± 0.18 | 678.08 ± 0.16

CCCO [propan-1-ol] + CCCCCCCC
[1], x2 = 0
Details | mass density [kg/m3] | viscosity [mPa·s]
293.15 K | 803.84 ± 0.12 | 2.21 ± 0.014
298.15 K | 799.85 ± 0.12 | 1.962 ± 0.013
303.15 K | 795.81 ± 0.12 | 1.746 ± 0.012
308.15 K | 791.74 ± 0.12 | 1.556 ± 0.012
313.15 K | 787.64 ± 0.13 | 1.386 ± 0.011
318.15 K | 783.55 ± 0.13 | 1.242 ± 0.011
323.15 K | 779.32 ± 0.13 | 1.115 ± 0.01

CCCCO [butan-1-ol]
[2]
Details | mass density [kg/m3] | viscosity [mPa·s]
293.15 K | 809.53 ± 0.12 | 2.968 ± 0.017
298.15 K | 805.7 ± 0.12 | 2.602 ± 0.016
303.15 K | 801.86 ± 0.12 | 2.292 ± 0.015
308.15 K | 797.99 ± 0.12 | 2.025 ± 0.013
313.15 K | 794.1 ± 0.12 | 1.796 ± 0.013
318.15 K | 790.18 ± 0.12 | 1.59 ± 0.012
323.15 K | 786.21 ± 0.13 | 1.414 ± 0.011

CCCCCCCC [octane]
[2]
Details | mass density [kg/m3] | viscosity [mPa·s]
293.15 K | 702.54 ± 0.15 | 0.545 ± 0.009
298.15 K | 698.49 ± 0.15 | 0.513 ± 0.009
303.15 K | 694.44 ± 0.16 | 0.485 ± 0.009
308.15 K | 690.37 ± 0.16 | 0.459 ± 0.009
313.15 K | 686.29 ± 0.16 | 0.433 ± 0.009
318.15 K | 682.19 ± 0.16 | 0.412 ± 0.008
323.15 K | 678.08 ± 0.16 | 0.392 ± 0.008

CCO [ethanol]
[2]
Details | mass density [kg/m3]
293.15 K | 790.91 ± 0.12
298.15 K | 786.6 ± 0.12
303.15 K | 782.28 ± 0.12
308.15 K | 777.94 ± 0.13
313.15 K | 773.56 ± 0.13
318.15 K | 769.15 ± 0.13
323.15 K | 764.69 ± 0.13

CCCCCO [pentan-1-ol]
[2]
Details | mass density [kg/m3] | viscosity [mPa·s]
293.15 K | 814.59 ± 0.11 | 4.042 ± 0.022
298.15 K | 810.93 ± 0.12 | 3.518 ± 0.02
303.15 K | 807.24 ± 0.12 | 3.06 ± 0.018
308.15 K | 803.53 ± 0.12 | 2.659 ± 0.016
313.15 K | 799.79 ± 0.12 | 2.334 ± 0.015
318.15 K | 796.03 ± 0.12 | 2.042 ± 0.013
323.15 K | 792.23 ± 0.12 | 1.805 ± 0.013

CCCCO [butan-1-ol] + CCCCCCCC
[1], x2 = 0
Details | mass density [kg/m3] | viscosity [mPa·s]
293.15 K | 809.53 ± 0.12 | 2.968 ± 0.017
298.15 K | 805.7 ± 0.12 | 2.602 ± 0.016
303.15 K | 801.86 ± 0.12 | 2.292 ± 0.015
308.15 K | 797.99 ± 0.12 | 2.025 ± 0.013
313.15 K | 794.1 ± 0.12 | 1.796 ± 0.013
318.15 K | 790.18 ± 0.12 | 1.59 ± 0.012
323.15 K | 786.21 ± 0.13 | 1.414 ± 0.011
